Measured values taken from patent publication US20030088057A1, “PEPTIDE SUBSTRATES PHOSPHORYLATED BY P21-ACTIVAGED PROTEIN KINASE STATEMENT REGARDING FEDERALLY SPONSORED REASEARCH OR DEVELOPMENT” (priority 1998, published 2003).
Where two headings read alike, the source gives them in different places. No end group written: not given here.

How the values were obtained:
[1] = tested on: γ-PAK; experiment: Kinetic parameters (Km, Vmax) for phosphorylation of synthetic peptides by γ-PAK; format: biochemical, rabbit
Experimental: (§1) Assays with peptides (I mM) were carried out with γ-PAK (1.6-5.6 units) in 25 μL reaction mixtures incubated for 30 min at 30° C. under conditions described above, except that 0.4 mg/mL of bovine serum albumin was added and the specific activity of ATP was 300-2000 cpm/pmol. Reactions were terminated with 5 μL of 100 mM ATP, and the amount of ^32p incorporated was quantitated by precipitation of 20 μL aliquots on P81 phosphocellulose paper with 75 mM H3PO4 as described previously [Bensen, E. S., et al., Biochim. Biophys. Acta, 1292:249-258 (1996)]. Peptides containing only one basic amino acid were analyzed by thin-layer electrophoresis on cellulose sheets for 2 h at 600 V with pyridine/acetic acid/water (10:100:890), pH 3.5, as solvent, as described previously [Bensen, E. S., et al., supra]. Activation of γ-PAK by autophosphorylation in the presence of Cdc42(GTPγS) was performed as previously described [Jakobi, R., et al., supra]. γ-PAK was also activated by limited digestion with trypsin as described previously [Rooney, R. D., et al., (1996), supra].

[2] = tested on: γ-PAK; experiment: Rates of phosphorylation of synthetic peptides by γ-PAK; format: biochemical, rabbit; conditions: for 32P incorporated, %: AKRASAA taken as 100%; for substrate for γ-PAK (in words): synthetic peptides; for rate of phosphorylation compared to AKRASAA: relative to AKRASAA; for rate of phosphorylation compared to ARRASVA: other studies, ARRASVA = 100%
Source text: (§2) A. Materials. γ-PAK was purified from rabbit reticulocytes to apparent homogeneity by chromatography on DEAE-cellulose, SP-Sepharose, protamine agarose, and FPLC on Mono S and Mono Q. Histone I (type IIIS), mixed histone (type IIAS), trypsin (L-1-tosylamido-2-phenylethyl chloromethyl ketone treated), soybean trypsin inhibitor, bovine serum albumin (fatty acid free), and myelin basic protein were purchased from Sigma. Purified histones 2B and 4 were purchased from Boehringer-Mannheim. Myosin light chain from rabbit skeletal muscle was a gift from Dr. James Stull, University of Texas Southwestern Medical Center, Dallas, Tex.; rat prolactin was provided by Dr. Ameae Walker, University of California, Riverside, Calif.; and the purified catalytic subunit of cAMP-dependent protein kinase from bovine heart was a gift from Dr. William H. Fletcher, J. L. Pettis Memorial V. A. Hospital, Loma Linda, Calif. Protein kinase C was purified from bovine brain according to the procedure of Walton et al. [Walton, G. M., et al., Anal Biochem., 161:425-437 (1987)], with modifications [Venema, R. C., et al., J. Biol. Chem., 266:5298-5302 (1991)]. The clone for GST-Cdc42 was generously provided by Dr. Channing Der, University of North Carolina, Chapel Hill, N.C. Cellulose thin-layer chromatography sheets were from Kodak.
D. Phosphorylation Assays. Phosphorylation of protein substrates was carried out in 35 μL reaction mixtures containing 20 mM Tris-HCl, pH 7.4, 10 mM MgCl2, 30 mM 2-mercaptoethanol, 0.2 mM ATP (specific activity =1000 cpm/pmol), 2 μg of protein substrate, and 20 units of active γ-PAK (an enzyme unit is defined as the amount of enzyme that incorporates 1 pmol of phosphate into histone IIAS/ min at 30°. Under these conditions, phosphate incorporation was linear and initial rates of phosphorylation were measured. After incubation at 30° C. for 15 min, reactions were terminated by the addition of 5 μL of 100 mM nonlabeled ATP and sample buffer for gel electrophoresis [Hathaway, G. M., et al., Methods Enzymol., 60:495-511 (1979)]. Reaction mixtures were subjected to SDS-PAGE on 15% polyacrylamide gels followed by autoradiography. Phosphorylation was quantified by excising the protein band and counting the incorporated ^32P in a liquid scintillation counter. The specific activity of γ-PAK was 400 pmol min^−1 μg^−1 as reported previously using 0.2 mM ATP and 1 mg/mL mixed histone as substrate [Rooney, R. D., et al., (1996), supra].
as §1
Target sequence in this assay (Q29502 249-500 limits assumed): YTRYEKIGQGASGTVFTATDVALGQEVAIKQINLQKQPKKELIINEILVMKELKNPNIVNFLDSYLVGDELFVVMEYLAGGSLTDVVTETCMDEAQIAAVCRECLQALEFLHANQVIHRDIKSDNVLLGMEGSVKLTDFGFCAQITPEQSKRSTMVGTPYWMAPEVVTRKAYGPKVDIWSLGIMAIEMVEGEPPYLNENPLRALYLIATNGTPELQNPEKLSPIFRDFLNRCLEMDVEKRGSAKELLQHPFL

[3] = tested on: PKC; experiment: Rates of phosphorylation of synthetic peptides by PKC; format: biochemical, bovine; conditions: for 32P incorporated: PKC (3.4 units), with Ca2+ and phospholipids, 0.14 mM ATP; for 32P incorporated, %: PKC, AKRASAA taken as 100%
Source text: as §2
Reactions with PKA (10.5 units) were carried out under the same conditions as with γ-PAK except that 0.14 mM ATP was used. Reactions with PKC (3.4 units) were performed as with PKA, with the addition of 0.4 mM CaCl2, phosphatidylinositol (15 μg/mL), phosphatidylserine (15 μg/ mL), and 1,2-diolein (3 μg/mL), as described [Tuazon, P. T., et al., (1989), supra]. A unit of PKA or PKC is defined as the amount of enzyme that incorporates 1 pmol of phosphate/min at 30° C. into histone IIAS or histone 1, respectively.
PKA and PKC are known to require basic amino acids on the N-terminal side of the phosphorylatable serine/ threonine. To distinguish their substrate specificities from that of γ-PAK, the relative rates of phosphorylation were determined with the synthetic peptide substrates using the conditions for γ-PAK, with the addition of Ca^2+ and phospholipids for PKC. The rates shown in Table 5 are calculated with equivalent units of enzyme; the rate of phosphorylation of the peptide AKRASAA (SEQ ID NO:6) is taken as 100% for all three enzymes. As would be expected, PKA preferentially phosphorylated the peptides that contained RR or RK at the −3 and −2 positions and with […] residues or proline at the −4 and −1 positions inhibitory. PKC recognized SKR>RKS>KKS. The most notable difference between γ-PAK and PKA or PKC is the effect of acidic residues on the susceptibility of the peptide to be phosphorylated. An acidic residue in the −1 or −4 position was beneficial for γ-PAK but was detrimental for both PKA and PKC (Table 5). […] In addition, γ-PAK could not tolerate an arginine in the −3 position when lysine was in the −2 position.

[4] = Cdc42(GTPγS)-activated γ-PAK, peptide 1 mM, KKRKSAA = 100
[5] = proteolytically (trypsin) activated γ-PAK, peptide 1 mM, compared to KKRKSAA = 100
[6] = proteolytically activated γ-PAK (5.6 units), peptide 1 mM, 30 min at 30° C.
[7] = γ-PAK, calculated with equivalent units of enzyme
[8] = Table 2, influence of basic amino acids, γ-PAK 1.6 units, ATP 0.2 mM
[9] = Table 2, influence of basic amino acids, γ-PAK 1.6 units, ATP 0.2 mM, read-out: Km
[10] = Table 4, influence of proline and glycine
[11] = Table 4, influence of proline and glycine, read-out: Km

Compound | rel rate (%) [2, 4] | rel rate (%) [2, 5] | 32P incorporated [2, 6] | substrate for γ-PAK (in words) [2] | further results
Nc1ncnc2c1ncn2[C@@H]1O[C@H](COP(=O)(O)OP(=O)(O)OP(=O)(O)O)[C@@H](O)[C@H]1O [ATP, reference compound] | – | – | – | – | Km ([1]; at concentrations of 1-3 mM peptide, read-out: Km for ATP): 65 to 80 µM
AAAASKR (AAAASKR-NH2) [synthetic peptide with an amide C-terminal group] | 0% | 0% | 0 pmol/min/µg | – | 32P incorporated, % ([2]; γ-PAK): 0%; 32P incorporated [2, 7]: 0 pmol/unit; 32P incorporated [3]: 13.3 pmol/unit; 32P incorporated, % [3]: 403%
AAKKSAA (AAKKSAA-NH2) [synthetic peptide with an amide C-terminal group] | 0% | 0% | 0 pmol/min/µg | poor substrates | –
AAKRSAA (AAKRSAA-NH2) [synthetic peptide with an amide C-terminal group] | 0% | 0% | 0 pmol/min/µg | poor substrates | –
AARASAA (AARASAA-NH2) [synthetic peptide with an amide C-terminal group] | 56% | 56% | 169 pmol/min/µg | reacted to a small but significant extent | Vmax [1, 8]: 2.27 pmol/min; Km [1, 9]: 1880 µM; rate of phosphorylation compared to AKRASAA ([2]; γ-PAK): 40%
AKRASGA (AKRASGA-NH2) [synthetic peptide with an amide C-terminal group] | – | 107% | 324 pmol/min/µg | – | increase of Km compared to AKRASAA [1]: 4 fold; increase of Vmax compared to AKRASAA [1]: 3 fold; overall rate of phosphorylation (Vmax/Km) compared to AKRASAA [1]: slight overall decrease; Vmax [1, 10]: 3.49 pmol/min; Km [1, 11]: 2090 µM
AKRASPA (AKRASPA-NH2) [synthetic peptide with an amide C-terminal group] | 3% | 0% | 0 pmol/min/µg | virtually abolished phosphorylation | Km [1, 11]: > 5000 µM
AKRGSAA (AKRGSAA-NH2) [synthetic peptide with an amide C-terminal group] | – | 126% | 381 pmol/min/µg | – | increase of Km compared to AKRASAA [1]: 7 fold; increase of Vmax compared to AKRASAA [1]: 6 fold; overall rate of phosphorylation (Vmax/Km) compared to AKRASAA [1]: slight overall decrease; Vmax [1, 10]: 6.44 pmol/min; Km [1, 11]: 3520 µM
AKRKSAA (AKRKSAA-NH2) [synthetic peptide with an amide C-terminal group] | 158% | 181% | 548 pmol/min/µg | – | Vmax [1, 8]: 2.34 pmol/min; Km [1, 9]: 480 µM
AKRPSAA (AKRPSAA-NH2) [synthetic peptide with an amide C-terminal group] | 11% | 6% | 16 pmol/min/µg | virtually abolished phosphorylation | Km [1, 11]: > 5000 µM; 32P incorporated, % ([2]; γ-PAK): 5%; 32P incorporated [2, 7]: 1.2 pmol/unit; 32P incorporated [3]: 3.9 pmol/unit; 32P incorporated, % [3]: 118%
ARAASVA [synthetic peptide] | – | – | – | reacted to a small but significant extent | rate of phosphorylation compared to ARRASVA ([2]; γ-PAK): 40%; rate of phosphorylation compared to AKRASAA ([2]; γ-PAK): 40%
ARKASAA (ARKASAA-NH2) [synthetic peptide with an amide C-terminal group] | 9% | 6% | 16 pmol/min/µg | poor substrates | Km [1, 9]: > 5000 µM; 32P incorporated, % ([2]; γ-PAK): 3%; 32P incorporated [2, 7]: 0.9 pmol/unit; 32P incorporated [3]: 5.7 pmol/unit; 32P incorporated, % [3]: 173%
ARRASVA [synthetic peptide] | – | – | – | – | rate of phosphorylation compared to ARRASVA ([2]; γ-PAK): 100%
KKAASAA (KKAASAA-NH2) [synthetic peptide with an amide C-terminal group] | 3% | 0% | 0 pmol/min/µg | did not | –
KKRASAA (KKRASAA-NH2) [synthetic peptide with an amide C-terminal group] | 181% | 193% | 586 pmol/min/µg | – | Vmax [1, 8]: 1.59 pmol/min; Km [1, 9]: 370 µM
